From patent publication US20130143891A1, “Methods for Treating Methotrexate-Resistant Disorders with 10-Propargyl-10-Deazaaminopterin” (ALLOS THERAPEUTICS, INC., priority 2010, published 2013) come the findings set out here.

Molecules are shown by their SMILES. Entries after “also recorded” stand apart in the source; their conditions may differ.

Common to all, as to assay type: cell-based, human
Data set [1] deals with PC3 prostate cancer cell line. The data set can be described thus: MTT cell cytotoxicity assay, PC3. The following applies: Homo sapiens, 72 h, 72 h exposure, read-out: Cytotoxicity (IC50s). As for the experimental part: (§1) A panel of colon (HT29, HCT116, COLO205, HCC2998), breast (MCF7, MDA-MB-435), lung (HOP62, HOP92), ovarian (OVCAR3, IGROV1), prostate (DU145, PC3), and head and neck (SCC61, HEP2, SQ20B) human cancer cell lines was purchased from the ATCC (Rockville, Md.) and National Cancer Institute collections. […] All the data generated was the result of three separate experiments performed in duplicate. Cell viability was determined using the MTT assay, which was carried out as described previously (Hansen, 1989). Briefly, cells were seeded in 96-well plates at a density of 2×10^3 cells well^−1. […] The monolayer was suspended in 0.1 ml of DMSO and the absorbance at 560 nm was measured using a microplate reader. Positive and negative controls included wells with untreated cells or medium containing MTT with no cells, respectively. The conversion of yellow water-soluble tetrazolium MTT into purple insoluble formazan is catalyzed by mitochondrial dehydrogenases and is used to estimate the number of viable cells.
On the technique in general: Tetrazolium assays rely on reduction of a dye to a coloured formazan, in cell work by metabolically active cells.

Data set [2] relates to SCC61 head and neck cancer cell line. The data set can be described thus: MTT cell cytotoxicity assay, SCC61. The following applies: Homo sapiens, 72 h, 72 h exposure, read-out: Cytotoxicity (IC50s). As for the experimental part:
as §1

Data set [3] relates to DU145 prostate cancer cell line. As to the kind of experiment: MTT cell cytotoxicity assay, DU145. The following applies: Homo sapiens, DU-145, 72 h, naïve/parental, 72 h exposure, read-out: Cytotoxicity (IC50s). As for the experimental part:
as §1

Data set [4] deals with HT29 colon cancer cell line. The data set can be described thus: MTT cell cytotoxicity assay, HT29. The settings on record: Homo sapiens, HT-29, 72 h, 72 h exposure, read-out: Cytotoxicity (IC50s). As for the experimental part: as §1
A further data set concerns HOP62 NSCLC cell line. As to the kind of experiment: MTT cell cytotoxicity assay, HOP62. The settings on record: Homo sapiens, HOP-62, 72 h, 72 h exposure, read-out: Cytotoxicity (IC50s). As for the experimental part: as §1
For data set [5], the system named is SQ20B head and neck cancer cell line. As to the kind of experiment: MTT cell cytotoxicity assay, SQ20B. The settings on record: Homo sapiens, SQ20B, 72 h, 72 h exposure, read-out: Cytotoxicity (IC50s). As for the experimental part: as §1
Another data set has as its system HOP92 NSCLC cell line. The data set can be described thus: MTT cell cytotoxicity assay, HOP92. The settings on record: Homo sapiens, HOP-92, 72 h, 72 h exposure, read-out: Cytotoxicity (IC50s). As for the experimental part: as §1
Data set [6] concerns HEP2 head and neck cancer cell line. As to the kind of experiment: MTT cell cytotoxicity assay, HEP2. The settings on record: Homo sapiens, HEp-2, 72 h, 72 h exposure, read-out: Cytotoxicity (IC50s). As for the experimental part:
as §1

Data set [7] deals with IGROV1 ovarian cancer cell line. As to the kind of experiment: MTT cell cytotoxicity assay, IGROV1. The settings on record: Homo sapiens, IGROV-1, 72 h, 72 h exposure, read-out: Cytotoxicity (IC50s). As for the experimental part: as §1
For data set [8], the system named is COLO205 colon cancer cell line. As to the kind of experiment: MTT cell cytotoxicity assay, COLO205. The settings on record: Homo sapiens, COLO 205, 72 h, 72 h exposure, read-out: Cytotoxicity (IC50s). As for the experimental part: as §1
In data set [9] the test system is HCC2998 colon cancer cell line. The data set can be described thus: MTT cell cytotoxicity assay, HCC2998. The settings on record: Homo sapiens, HCC 2998, 72 h, 72 h exposure, read-out: Cytotoxicity (IC50s). As for the experimental part: as §1
Data set [10] concerns MCF7 breast cancer cell line. The data set can be described thus: MTT cell cytotoxicity assay, MCF7. The settings on record: Homo sapiens, MCF7, 72 h, 72 h exposure, read-out: Cytotoxicity (IC50s). As for the experimental part:
as §1

Data set [11] has as its system HCT116 colon cancer cell line. As to the kind of experiment: MTT cell cytotoxicity assay, HCT116. The settings on record: Homo sapiens, HCT-116, 72 h, 72 h exposure, read-out: Cytotoxicity (IC50s). As for the experimental part: as §1
Data set [12] relates to OVCAR3 ovarian cancer cell line. The data set can be described thus: MTT cell cytotoxicity assay, OVCAR3. The settings on record: Homo sapiens, OVCAR-3, 72 h, 72 h exposure, read-out: Cytotoxicity (IC50s). As for the experimental part:
as §1

Data set [13] relates to MDA-MB-435 melanoma cell line. The data set can be described thus: MTT cell cytotoxicity assay, MDA-MB-435. The following applies: Homo sapiens, MDA-MB-435, 72 h, MDA-MB-435 (melanoma; MDA435 in table), 72 h exposure; read-out: Cytotoxicity (IC50s). As for the experimental part: as §1
For a further data set, the system named is DU-MTX cells. As to the kind of experiment: Cytotoxicity in methotrexate-adapted DU145 cells. As for the experimental part: (§2) All the data generated was the result of three separate experiments performed in duplicate. Cell viability was determined using the MTT assay, which was carried out as described previously (Hansen, 1989). Briefly, cells were seeded in 96-well plates at a density of 2×10^3 cells well^−1. Cells were incubated for 120 hours and then 0.4 mg ml^−1 of MTT dye (3-[4,5-dimethylthiazol-2-yl]-2,5-diphenyltetrazolium bromide was added for 4 hours at 37° C. The monolayer was suspended in 0.1 ml of DMSO and the absorbance at 560 nm was measured using a microplate reader. Positive and negative controls included wells with untreated cells or medium containing MTT with no cells, respectively. The conversion of yellow water-soluble tetrazolium MTT into purple insoluble formazan is catalyzed by mitochondrial dehydrogenases and is used to estimate the number of viable cells. The control value corresponding to untreated cells was taken as 100% and the viability of treated samples was expressed as a percentage of the control. IC50 values were determined as concentrations that reduced cell viability by 50%.
(§3) For single agent studies, cells were seeded and allowed to settle for 24 hours prior to treatment with increasing concentrations of 10-propargyl-10-deazaminopterin for 72 h. After incubation, the cells were allowed to recover in compound-free medium for 48 h, prior to determination of growth inhibition using the MTT assay.
To compare the mechanisms of 10-propargyl-10-deazaminopterin and methotrexate resistance, the cell lines DU-MTX and HEP-MTX were developed from parental DU145 and HEP2 cells by exposure to stepwise increasing concentrations of methotrexate.

The next data set concerns HEP-MTX cells. The data set can be described thus: Cytotoxicity in methotrexate-adapted HEP2 cells. The settings on record: methotrexate-adapted HEP2 compared with parental cells. As for the experimental part: as §2
For single agent studies, cells were seeded and allowed to settle for 24 hours prior to treatment with increasing concentrations of 10-propargyl-10-deazaminopterin for 72 h. […]

In the next data set the test system is DU-PDX cells. The data set can be described thus: Cytotoxicity in 10-propargyl-10-deazaminopterin-adapted DU145 cells. The settings on record: DU-PDX cells; 72 h exposure for pemetrexed and 5-FU. As for the experimental part:
as §2, §3
(§4) To characterize the predictive factors of 10-propargyl-10-deazaminopterin antiproliferative effects, the cell lines DU-PDX and HEP-PDX were developed from parental DU145 and HEP2 cells, respectively, by exposure to stepwise increasing concentrations of 10-propargyl-10-deazaminopterin over a period of 6 months.

A further data set concerns HEP-PDX cells. As to the kind of experiment: Cytotoxicity in 10-propargyl-10-deazaminopterin-adapted HEP2 cells. The settings on record: HEP-PDX cells; 72 h exposure for pemetrexed and 5-FU. As for the experimental part: as §2, §3, §4

Take `CN(Cc1cnc2nc(N)nc(N)c2n1)c1ccc(C(=O)N[C@@H](CCC(=O)O)C(=O)O)cc1` [Methotrexate]: the IC50 in data set [1] is 100 nM; in data set [2] it was 30 nM; in data set [3], 300 nM; in data set [4], 220 nM; in the data set on HOP62 NSCLC cell line it was 150 nM; in data set [5] it was 260 nM. The IC50 is 600 nM in the data set on HOP92 NSCLC cell line; 250 nM in [6]; 330 nM in data set [7]; 30000 nM in data set [8]; over 350000 nM in data set [9]; 300000 nM in data set [10]. Moreover, the IC50 in [11], in [12] and in data set [13] was over 350000 nM throughout. Besides, the “increase in IC50 in methotrexate adapted DU-145 cells” value in the data set with DU-MTX cells (DU-MTX versus naïve DU-145) is reported as “approximately 10 fold”. The “sensitivity of DU-MTX cells (in words)” value with DU-MTX cells (methotrexate-adapted DU145 compared with parental/naïve cells) is “displayed resistance”. In addition, in the data set on HEP-MTX cells, the “sensitivity of HEP-MTX cells (in words)” value is recorded as “displayed resistance”. For the same compound, the “cross-resistance: cytotoxicity in DU-PDX compared with parental DU145” value with DU-PDX cells was “partial cross-resistance; also recorded: insensitive”. Further, the “cross-resistance: cytotoxicity in HEP-PDX compared with parental HEP2” value with HEP-PDX cells is “partial cross-resistance”.
